Measured values: patent US10894808B2, “Polypeptide ligands specific for plasma kallikrein” (BicycleRD Limited, priority 2013, dated 2021)
*1 amine or outer side, *2 acyl side, *3 side chain or, on linkers, in order; H or OH if unused. Where a SMILES comes first, the peptide text is derived from it. Bridges are numbered along the chain shown (N, C = ends). [ ]: non-standard residue; d: D form. TBMB = c1c(C[*:1])cc(C[*:3])cc1C[*:2]; hArg = N=C(N)NCCCC[C@H](N)C(=O)O; Aze = O=C(O)[C@@H]1CCN1; Sar = CNCC(=O)O

Experiments:
[1] = Intravenous pharmacokinetics in rat; format: in vivo; conditions: in vivo, Table 8, Sprague Dawley rat, iv 5 mg/kg
Experimental: Peptides used for the pharmacokinetic studies in Example 4 were lyophilised from 10 mM HCl in water 3 times to afford the hydrochloride salts of the compounds. Solutions were dosed by intravenous bolus at 1 mg/mL in 50 mM Hepes pH 7.0, 5% glycerol, 1.9% DMSO for two compounds (Ac-(06-550) Aze3 HArg5 Sar3-(D-Arg2)) and (06-259-02)-Sar3-(D-Arg2)) at 5 mg/kg in Spraguely Dawely rats. Serial blood samples (˜0.2 mL) were taken into EDTA tubes at the indicated time points, and plasma was separated by centrifugation, and frozen at −20 C for analysis. Employing standard bioanalytical techniques, plasma samples were then analysed and quantified for parent remaining compound using a Waters, Xevo TQS LC-MS. PK parameters were determined using the software package PK Solutions 2.0 from Summit Research Services.
Peptides Ac-(06-550)-Sar3-(D-Arg)2Aze3 HArg5 (which contains the stabilising and affinity enhancing modifications Aze3 and HArg5, and a solubilising C-terminal extension Sar3-(D-Arg)2) (SEQ ID NO: 98) and Ac-(06-259-02)-Sar3-(D-Arg)2 were selected for pharmacokinetic assessment in rat. Peptides were injected intravenously in buffered solution at 1 mg/mL at 5 mg/kg Sprague Dawley rats, and blood was sampled and analysed for peptide concentrations at a number of time points post injection.

[2] = Plasma stability profiling Method #2 (95% plasma, MALDI-TOF), human plasma; format: in vitro ADME; conditions: qualitative, sampled up to 46 hrs
Experimental: (§1) To obtain stability data more rapidly, peptides were also assessed in 95% plasma. Here, PBS was omitted, and a 1-5 mM peptide stock (in DMSO) was directly diluted into plasma (i.e. 2.5 μL stock into 47.5 μL plasma), giving a final concentration of 50 μM. 5 μL samples were taken at appropriate time points and frozen at −80° C. For analysis, the samples were defrosted, mixed with 25 μL of 3:3:1 acetonitrile:methanol:water, and centrifuged at 13 k for 5 min. 5 μL of the peptide-containing supernatant was aspirated and mixed with 30 mM ammonium bicarbonate in a 1:1 mixture of acetonitrile:H2O. 1 μL of this was then spotted on the MALDI plate and analysed as described above. As above, it should be noted that this is a qualitative assay serves to detect relative changes in plasma stability.

[3] = Plasma stability profiling Method #2 (95% plasma, MALDI-TOF), rat plasma; format: in vitro ADME; conditions: qualitative, sampled up to 46 hrs
Experimental: as §1

human plasma kallikrein = target: T1, human plasma kallikrein (Homo sapiens, UniProt P03952); experiment: Functional enzyme assay, inhibition of human plasma kallikrein (Z-PheArg-AMC substrate); format: biochemical
T1 construct: purchased Stratech, UK
T1 sequence (P03952 391-638 limits assumed): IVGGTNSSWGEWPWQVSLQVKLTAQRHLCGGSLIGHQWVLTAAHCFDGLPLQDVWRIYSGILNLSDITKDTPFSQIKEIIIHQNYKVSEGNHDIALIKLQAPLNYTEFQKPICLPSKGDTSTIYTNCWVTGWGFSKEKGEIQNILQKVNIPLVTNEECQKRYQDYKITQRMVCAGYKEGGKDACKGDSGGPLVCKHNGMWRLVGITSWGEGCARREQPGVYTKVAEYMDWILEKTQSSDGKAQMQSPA
T1 sequence (P03952 20-390 partner limits assumed): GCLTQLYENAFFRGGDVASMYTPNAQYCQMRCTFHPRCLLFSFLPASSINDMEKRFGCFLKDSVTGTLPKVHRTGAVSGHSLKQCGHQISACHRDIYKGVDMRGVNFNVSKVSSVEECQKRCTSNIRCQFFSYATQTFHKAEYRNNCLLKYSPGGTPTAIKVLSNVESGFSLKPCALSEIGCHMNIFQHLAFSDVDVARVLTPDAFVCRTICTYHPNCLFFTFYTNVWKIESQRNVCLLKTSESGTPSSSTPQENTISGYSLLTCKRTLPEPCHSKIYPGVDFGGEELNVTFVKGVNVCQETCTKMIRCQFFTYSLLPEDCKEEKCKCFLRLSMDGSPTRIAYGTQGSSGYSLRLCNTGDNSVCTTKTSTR
In short: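 Buffer 10 mM Tris HCl, 150 mM NaCl, 10 mM MgCl2, 1 mM CaCl2, 1 mg/mL BSA, pH 7.4, 25° C. AMC release read at ex 360/em 460 nm; linear-phase rate (typically 5–45 min) fitted by four-parameter non-linear regression for IC50, with Ki also derived.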

[4] = Pharmacokinetics following intravitreal injection in rabbit; format: in vivo; conditions: vitreous humour; New Zealand White rabbit, intravitreal 100 μg/eye; read-out: elimination half-life from the vitreous humour
Experimental: In this analysis, peptide Ac-(06-550)-Sar3-(D-Arg)2 Aze3 HArg5 (referred to in this study as Bicycle 1 and which contains the stabilising and affinity enhancing modifications Aze3 and HArg5, and a solubilising C-terminal extension Sar3-(D-Arg)2 (SEQ ID NO: 98); see Examples 3 and 4 herein) was assessed comparatively against the peptide Ac-(06-34-18) Phe2 Aze3 Tyr4 HArg5 Ala(ψCH2NH)6 (referred to in this study as Bicycle 2 and which is disclosed in Table 26b and FIG. 22 of PCT/EP2014/057440). New Zealand White rabbits (2-3 kg) were anaesthetized and both peptides were administered by intravitreal injection (100 μg/eye) according to the protocol described in Table 9.
After an appropriate time, rabbits were euthanized and vitreous humour, aqueous humour, retina and plasma samples were taken. Samples were analysed by LC-MS to determine the concentration of the peptide. The results of this study are shown in FIG. 5 where it can be observed that both peptides were slowly cleared from the vitreous humour, with elimination half-lives of 20-30 h.

CC[C@H](C)[C@@H]1NC(=O)[C@H](CC(=O)O)NC(=O)[C@@H]2CCCN2C(=O)[C@H](Cc2ccc(O)cc2)NC(=O)[C@H](Cc2ccc(O)cc2)NC(=O)[C@H](C(C)C)NC(=O)[C@@H]2CSCc3cc(cc(c3)CSC[C@@H](C(=O)N[C@@H](C)C(=O)N(C)CC(=O)N(C)CC(=O)N(C)CC(=O)N[C@H](CCCNC(=N)N)C(=O)N[C@H](CCCNC(=N)N)C(N)=O)NC1=O)CSC[C@H](NC(C)=O)C(=O)N[C@@H](CO)C(=O)N[C@@H](Cc1ccccc1)C(=O)N1CC[C@H]1C(=O)N[C@@H](Cc1ccc(O)cc1)C(=O)N[C@@H](CCCCNC(=N)N)C(=O)N2 [Ac-(06-550)-Sar3-(DArg2) Aze3HArg5] (Ac-CSF[Aze]Y[hArg]CVYYPDICA[Sar][Sar][Sar][dR][dR]-NH2; linker 1-7-14 via TBMB; C-terminus assumed)
clearance [1]: 17 mL/min/kg | Vd ([1]; read-out: Vss): 0.4 L/kg | half-life ([1]; read-out: t1/2 elimination): 2.27 h | comparative stability in human plasma [2]: high stability | comparative stability in human plasma ([2]; listed as 06-550 derivative): Little degradation is observed | comparative stability in rat plasma [3]: high stability | comparative stability in rat plasma ([3]; listed as 06-550 derivative): Little degradation is observed | Ki (human plasma kallikrein): 0.4 nM | half-life [4]: 20 to 30 h
